Assay results from patent publication US8957219B2, “Acetic acid amide derivative having inhibitory activity on endothelial lipase” (Shionogi & Co., Ltd., priority 2008, dated 2015).

Biological target: human endothelial lipase (EL) (Homo sapiens (Human), UniProt Q9Y5X9)
Assay: Human endothelial lipase (EL) inhibitory activity using human HDL
Type: biochemical
Conditions: human HDL 2 mg/ml, 4-hour reaction at 37° C., NEFA readout
Method: Evaluation Method of Human Endothelial Lipase (EL) Inhibitory Activity Using Human High-Density Lipoprotein (HDL)
After the present compound dissolved in DMSO was added to become 0.5% DMSO to the reaction buffer consisting of 20 mM tris hydrochloric acid (pH7.4), bovine serum albumin (0.5%), calcium chloride (4 mM), sodium chloride (150 mM) and human HDL (2 mg/ml), the EL enzyme was added (total volume was 20 μl).
After 4-hour reaction at 37° C., non-esterified fatty acid (NEFA) generated from HDL by EL was measured with a commercially available assay kit and the amount of NEFA was used as an index of enzyme activity.

Chain of human endothelial lipase (EL) (Q9Y5X9 21-500): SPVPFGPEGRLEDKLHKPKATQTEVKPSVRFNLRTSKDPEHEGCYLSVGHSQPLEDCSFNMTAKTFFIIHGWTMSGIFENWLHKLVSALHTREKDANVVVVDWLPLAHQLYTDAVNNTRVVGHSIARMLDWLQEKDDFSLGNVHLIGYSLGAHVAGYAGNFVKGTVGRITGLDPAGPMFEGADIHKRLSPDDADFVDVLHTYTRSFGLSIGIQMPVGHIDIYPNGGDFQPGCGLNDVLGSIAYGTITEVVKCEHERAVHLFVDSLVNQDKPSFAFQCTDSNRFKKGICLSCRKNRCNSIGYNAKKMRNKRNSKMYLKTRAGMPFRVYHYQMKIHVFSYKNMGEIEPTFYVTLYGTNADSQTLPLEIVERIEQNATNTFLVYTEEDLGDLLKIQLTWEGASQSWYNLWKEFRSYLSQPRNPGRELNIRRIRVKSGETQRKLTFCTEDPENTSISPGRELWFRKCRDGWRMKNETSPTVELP

Structure (SMILES)	IC50 [nM]
O=C(Cc1nc2ccc(-c3ccccc3)cc2s1)NCc1cccc(C(=O)O)c1 [II-1-1]	230
NS(=O)(=O)c1cccc(CNC(=O)Cc2nc3ccc(-c4ccccc4)cc3s2)c1 [II-1-11]	560
CN(C)C(=O)c1cccc(CNC(=O)Cc2nc3ccc(-c4ccccc4)cc3s2)c1 [II-1-17]	1300
COCC(O)CNC(=O)Cc1nc2ccc(-c3ccccc3)cc2s1 (stereo not drawn) [II-1-190]	2100
O=C(Cc1nc2cc(-c3cccc(C(F)(F)F)c3)ccc2s1)NCc1cccc(C(=O)O)c1 [II-1-202]	290
O=C(Cc1nc2ccc(-c3ccccc3)cc2s1)NCc1nc(C(=O)O)cs1 [II-1-246]	280
N#CCNC(=O)CNC(=O)Cc1nc2ccc(-c3ccccc3)cc2s1 [II-2-1]	110
CC(O)CNC(=O)CNC(=O)Cc1nc2ccc(-c3ccccc3)cc2s1 (stereo not drawn) [II-2-131]	92

Compounds with a lower IC50, results first:

IC50 [nM]	Structure (SMILES)
29	N#CC1(NC(=O)CNC(=O)Cc2nc3ccc(-c4ccccc4)cc3s2)CC1 [II-2-67]
29	COc1cc2nc(CC(=O)NCC(=O)NCC#N)sc2cc1-c1ccccc1 [II-2-144]
32	C#CCNC(=O)CNC(=O)Cc1nc2ccc(-c3ccccc3)cc2s1 [II-2-211]
56	N#CCNC(=O)CNC(=O)Cc1nc2cc(-c3ccc(OC(F)(F)F)cc3)ccc2s1 [II-2-291]
